According to patent publication US20200375975A1, “Treatment of Renal Cell Carcinoma with Lenvatinib and Everolimus” (Eisai R&D Management Co., Ltd., priority 2016, published 2020):

Key:
[1] = test system: patients with unresectable advanced or metastatic renal cell carcinoma (RCC); assay: Same Phase 2 trial: PFS and ORR by retrospective independent blinded review of scans; assay type: in vivo, human; conditions: combo 18 mg+5 mg; everolimus 10 mg
[2] = test system: patients with unresectable advanced or metastatic renal cell carcinoma (RCC); assay: Same Phase 2 trial: laboratory abnormalities, Grade 3-4; assay type: in vivo, human; conditions: combo (head prints 10 mg+5 mg), LENVIMA 24 mg, everolimus 10 mg
Source text: Table 4 provides a summary of laboratory abnormalities observed in the patients in the RCC trial described in Example 1.

[3] = test system: patients with unresectable advanced or metastatic renal cell carcinoma (RCC); assay: Same Phase 2 trial: adverse reactions (CTCAE grades), once daily dosing; conditions: everolimus 10 mg;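 note: adverse events are any unwanted sign, symptom, abnormal lab finding or disease occurring in time with treatment, whether or not drug-related, and CTCAE grade expresses their severity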
Method: The CTCAE provides a grading (severity) scale for each adverse event term. […] The CTCAE grade refers to the severity of the AE.
The safety data described below are derived from the trial described in Example 1, which randomized (1:1:1) patients with unresectable advanced or metastatic renal cell carcinoma (RCC) to LENVIMA® 18 mg+everolimus 5 mg (n=51), LENVIMA® 24 mg (n=52), or everolimus 10 mg (n=50) once daily.

[4] = test system: patients with unresectable advanced or metastatic renal cell carcinoma (RCC); assay: Phase 2 trial in RCC after one prior VEGF-targeted treatment: efficacy (PFS, OS, ORR), investigator assessment, RECIST 1.1; LENVIMA 18 mg+everolimus 5 mg vs LENVIMA 24 mg vs everolimus 10 mg; conditions: combo 18 mg+5 mg, everolimus 10 mg
Method: A multicenter, randomized, open-label, trial was conducted to determine the safety and efficacy of lenvatinib administered alone or in combination with everolimus in subjects with unresectable advanced or metastatic renal cell carcinoma (RCC). The trial consisted of a Phase 1b dose finding and a Phase 2 portion. The Phase 2 portion enrolled a total of 153 patients with unresectable advanced or metastatic RCC following one prior VEGF-targeted treatment. Patients were required, inter alia, to have histological confirmation of predominant clear cell RCC, radiographic evidence of disease progression according to Response Evaluation Criteria in Solid Tumors Version 1.1 (RECIST), one prior VEGF-targeted therapy, and Eastern Cooperative Oncology Group (ECOG) Performance Status of 0 or 1.
Patients were randomly allocated to one of 3 arms: (i) LENVIMA® (mesylate salt of lenvatinib) 18 mg+everolimus 5 mg, (ii) LENVIMA® 24 mg, or (iii) everolimus 10 mg, using a 1:1:1 ratio. Patients were stratified by hemoglobin level (≤13 g/dL vs. >13 g/dL for males and ≤11.5 g/dL vs >11.5 g/dL for females) and corrected serum calcium (≥10 mg/dL vs. <10 mg/dL).
The primary efficacy outcome measure, based on investigator assessed tumor response, was progression-free survival (PFS) of the LENVIMA® plus everolimus arm vs. the everolimus arm and of the LENVIMA® arm vs. the everolimus arm. Other efficacy outcome measures included investigator-assessed overall survival (OS) and objective response rate (ORR).
Tumor assessments were evaluated according to RECIST.

rats = conditions: rat, in vivo, po; cited from earlier work
rabbits = conditions: rabbit, in vivo, po; cited from earlier work
[5] = combo 18 mg+5 mg, LENVIMA 24 mg

## CO[C@H]1C[C@@H]2CC[C@@H](C)[C@@](O)(O2)C(=O)C(=O)N2CCCC[C@H]2C(=O)O[C@H]([C@H](C)C[C@@H]2CC[C@@H](OCCO)[C@H](OC)C2)CC(=O)[C@H](C)/C=C(\C)[C@@H](O)[C@@H](OC)C(=O)[C@H](C)C[C@H](C)/C=C/C=C/C=C/1C [Everolimus, (1R,9S,12S,15R,16E,18R,19R,21R,23 S,24E,26E,28E,30S,32S,35R)-1,18-dihydroxy-12-{(1R)-2-[(1 S,3R,4R)-4-(2-hydroxyethoxy)-3-methoxycyclohexyl]-1-methylethyl}-19,30-dimethoxy-15,17,21,23,29,35-hexamethyl-11,36-dioxa-4-aza-tricyclo[30.3.1.0^4,9]hexatriaconta-16,24,26,28-tetraene-2,3,10,14,20-pentaone]
[1]
  ORR, independent blinded review: no subject had an objective response
[2]
  Alkaline phosphatase increased, Grades 3-4: 0%
  Aspartate aminotransferase (AST) increased, Grades 3-4: 0%
  Hemoglobin decreased, Grades 3-4: 16%
  Hyperglycemia, Grades 3-4: 16%
  Hyperkalemia, Grades 3-4: 2%
  Hypocalcemia, Grades 3-4: 2%
  Hypokalemia, Grades 3-4: 2%
  Hyponatremia, Grades 3-4: 6%
  Hypophosphatemia, Grades 3-4: 6%
  Lipase increased, Grades 3-4: 12%
  Lymphocyte count decreased, Grades 3-4: 20%
  Platelet count decreased, Grades 3-4: 0%
[2]; listed as everolimus
  Aspartate aminotransferase (AST) increased, Grades 3-4: no patients
[3]; LENVIMA 24 mg
  arterial thromboembolic events, Grade 3 or greater: 4%
[3]; [5]
  Adverse reactions led to dose reductions or interruption, patients: 54%
  Arthralgia/myalgia, All Grades: 32%
  Arthralgia/myalgia, Grades 3-4: 0%
  Confusional state, All Grades: 0%
  Confusional state, Grades 3-4: 0%
  Constipation, All Grades: 18%
  Constipation, Grades 3-4: 0%
  Cough, All Grades: 30%
  Cough, Grades 3-4: 0%
  Decreased appetite, All Grades: 18%
  Decreased appetite, Grades 3-4: 0%
  Decreased weight, All Grades: 8%
  Decreased weight, Grades 3-4: 0%
  Dehydration, All Grades: 2%
  Dehydration, Grades 3-4: 0%
  Diarrhea, All Grades: 34%
  Diarrhea, Grades 3-4: 2%
  Discontinuation of treatment due to hemorrhagic events, patients: no discontinuations
  Dyspepsia, All Grades: 12%
  Dyspepsia, Grades 3-4: 0%
  Dysphonia, All Grades: 4%
  Dysphonia, Grades 3-4: 0%
  Dyspnea, All Grades: 28%
  Dyspnea, Grades 3-4: 8%
  Epistaxis, All Grades: 24%
  Epistaxis, Grades 3-4: 0%
  Events of renal impairment: 12%
  Fatigue, All Grades: 38%
  Gastrointestinal disorders and Abdominal pain, All Grades: 8%
  Gastrointestinal disorders and Abdominal pain, Grades 3-4: 0%
  Grade 3 or greater diarrhea, patients: 2%
  Grade 3 or greater renal failure or impairment, incidence: 2%
  Headache, Grades 3-4: 2%
  Hypertension, All Grades: 10%
  Hypertension, Grades 3-4: 2%
  Insomnia, All Grades: 2%
  Insomnia, Grades 3-4: 0%
  Musculoskeletal chest pain, All Grades: 4%
  Musculoskeletal chest pain, Grades 3-4: 0%
  Nausea, All Grades: 16%
  Nausea, Grades 3-4: 0%
  Oral inflammation, All Grades: 50%
  Oral inflammation, Grades 3-4: 4%
  Oral pain, All Grades: 4%
  Oral pain, Grades 3-4: 0%
  Proteinuria, All Grades: 14%
  Proteinuria, Grades 3-4 (text: Grade 3 or greater): 2%
  Pruritus, All Grades: 14%
  Pruritus, Grades 3-4: 0%
  Pyrexia, All Grades: 10%
  QT/QTc interval prolongation, patients: No reports
  Rash, All Grades: 30%
  Rash, Grades 3-4: 0%
  Renal failure events, All Grades: 2%
  Renal failure events, Grades 3-4: 2%
  Vomiting, Grades 3-4: 0%
  arterial thromboembolic events, patients: 6%
  decreased ejection fraction and cardiac failure, Grade 3: 2%
  decreased ejection fraction and cardiac failure, patients: 4%
  epistaxis, Grade 1: 20%
  gastrointestinal perforation or fistula, patients: no patients
  hemorrhagic events, Grade 3 or greater: 2%
  hemorrhagic events, patients: 28%
  hypothyroidism, patients: 2%
  patients discontinued treatment for adverse reactions: 6 (12%) n (%)
[3]; combo 18 mg+5 mg
  elevation of TSH level post baseline in patients with a normal TSH at baseline: none
[3]
  epistaxis, Grade 2: 4%
[4]
  Number of complete responses (%): 0 n (%)
  Number of partial responses (%): 3 (6) n (%)
  Number of progressive disease (%): 12 (24) n (%)
  Number of stable disease (%): 31 (62) n (%)
[4]; cutoff Jul. 31, 2015
  Overall Survival (updated analysis): Number of deaths, n (%): 37 (74) n (%)
[4]; cutoff Jun. 13, 2014
  Overall Survival: Number of deaths (%): 26 (52) n (%)

## COc1cc2nccc(Oc3ccc(NC(=O)NC4CC4)c(Cl)c3)c2cc1C(N)=O [lenvatinib, 4-(3-chloro-4(cyclopropylaminocarbonyl)aminophenoxy)-7-methoxy-6-quinolinecarboxamide]
rats
  embryofetal toxicity findings: embryotoxicity, fetotoxicity, and teratogenicity
rabbits
  embryofetal toxicity findings: embryotoxicity, fetotoxicity, and teratogenicity
